We go through two compounds from US10829798B2, “DNA-linked enzyme-coupled assays” (THE REGENTS OF THE UNIVERSITY OF CALIFORNIA, priority 2014, dated 2020).

For the assay, the target named is T1, OleD (Streptomyces antibioticus, UniProt Q53685, P55A/R82V/R83E/T84P).
T1 construct: made in house; host or cells: PURExpress In Vitro Protein Synthesis Kit (NEB E6800L), cell-free transcription/translation, linear DNA with T7 promoter
Briefly: DLEnCA with purified recombinant OleD, agarose gel readout of MfeI digestion of probe DNA. The assay is classed as biochemical. The settings on record: purified OleD 0.5 μM, acceptor 0.5 mM, 2% agarose gel. As for the experimental part: FIG. 2A-FIG. 2D. DNA-Linked Enzyme-Coupled Assay using purified model enzyme (OleD). A. The OleD-catalyzed glucosylation of kaempferol using UDP-Glc as a donor-molecule. B. Purified recombinant OleD (0.5 μM) was incubated with probe DNA (4.5 nM) in the presence of kaempferol (0.5 mM) and various concentrations of UDP-Glc at 37° C. for 1 hour. Following incubation with TbGT, DNA was digested with MfeI. Digests were analyzed on a 2% agarose gel. […] (ii) A representative gel of the UDP-Glc titration reaction, as-well-as a “ladder” depicting expected DNA digestion sizes, is shown. C. […] Digests were analyzed on a 2% agarose gel (n=4). […] Digests were analyzed on a 2% agarose gel (n=4). […]
In order to verify that DNA protection using TbGT could be used to follow an enzymatic reaction under conditions amenable to downstream DNA analyses, the ability of recombinant OleD to reduce concentrations of UDP-Glc while in the presence of the substrate kaempferol was first tested. […] To identify if this reaction could be monitored by modification of DNA, recombinant OleD was purified (FIG. 5) and incubated with 5-hm-cytosine-modified probe DNA (4.5 nM probe DNA containing 2.5 μM modified 5-hm-cytosines), kaempferol (0.5 mM), and UDP-Glc concentrations varying from 10 μM to 1 mM in a buffered solution. […]

T1 sequence (Q53685 other isoform, or with tags, fused parts or gaps P55A/R82V/R83E/T84P): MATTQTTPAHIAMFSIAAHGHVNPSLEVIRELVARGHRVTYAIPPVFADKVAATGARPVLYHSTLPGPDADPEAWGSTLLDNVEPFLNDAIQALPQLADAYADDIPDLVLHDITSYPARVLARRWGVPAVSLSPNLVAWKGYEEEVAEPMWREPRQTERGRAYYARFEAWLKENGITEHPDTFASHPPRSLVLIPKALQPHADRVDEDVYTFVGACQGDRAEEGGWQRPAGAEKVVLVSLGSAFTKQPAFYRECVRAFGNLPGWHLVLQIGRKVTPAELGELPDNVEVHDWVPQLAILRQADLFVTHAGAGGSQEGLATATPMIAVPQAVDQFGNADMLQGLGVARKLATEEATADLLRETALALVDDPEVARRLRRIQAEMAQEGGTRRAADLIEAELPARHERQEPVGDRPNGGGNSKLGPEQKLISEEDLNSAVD

As to `O=c1c(O)c(-c2ccc(O)cc2)oc2cc(O)cc(O)c12` [I, kaempferol], for the setting “20 μM starting UDP-Glc, all components present”, the “digestion of probe DNA by MfeI (loss of TbGT protection)” value is given as “significant DNA digestion occurred”.
In the case of `O=C(O)c1ccc(O)cc1` [XI, 4-hydroxybenzoic acid], the “digestion of probe DNA by MfeI (loss of TbGT protection)” value (UDP-Glc titration) is given as “no DNA was digested”.
